Laboratory results as given in patent US9278081B2, “Extracts from Eucalyptus camaldulensis for the treatment of hyperglycemia and hypertension” (The University of the West Indies, priority 2012, dated 2016).
Values joined by “and” are separate entries in the source; they are usually repeats but may differ in a detail not shown here. Equal entries are not always repeated. “Also recorded” adds a separate entry of the source.

What was measured:
rats [1] = experiment: Haemodynamic parameters (blood pressure and heart rate), non-invasive CODA machine; format: in vivo; conditions: for effect on mean arterial blood pressure (in words): vs DMSO; for effect on systolic blood pressure (in words): vs DMSO and captopril
Text: A non-invasive method was used to measure the blood pressure and heart rate of the rats using the CODA machine from Kent Scientific Corporation. The rats were placed in a restraint (rat holder), to reduce agitation, and then placed on a warming pad of the machine (to reduce anxiety). The occlusion and volume pressure recording cuffs (O-cuff and VPR-cuff respectively) were placed onto the tail of the animal in that order respectively, in order to record the readings. The O-cuff terminates blood flow to the tail and then dilates slowly allowing for the physiological readings to be obtained from the returning blood flow, which is determined by the VPR sensor. The VPR-cuff is then used to measure the arterial pulsations as blood returns to the tail and it begins to swell. As the tail begins to swell the systolic blood pressure is measured, while the diastolic blood pressure is calculated when swelling stops.
The rats were trained within the restrain for three to four days prior to the measurements in order to reduce errors and an additional acclimatization period was done to allow the rats to relax prior to the basal blood pressure readings. […] The systolic and diastolic pressures, mean arterial pressure and the heart rate per minute was measured and about 20-25 readings were recorded and timed for approximately 30 minute including an allowance for acclimatization. […] Non-invasive blood pressure Measurement in Mice. […] Humana Press, which is herein incorporated by reference in its entirety.
A non-invasive method was used to measure the blood pressure and heart rate of the rats using the CODA-6-non-invasive machine from Kent Scientific Corporation. The rats were placed in a restraint (rat holder), to reduce agitation, which was then placed on a warming pad of the machine (to reduce anxiety). The occlusion and volume pressure recording cuffs (O-cuff and VPR-cuff respectively) were placed on to the tail of the animal in that order respectively, in order to record the readings. The O-cuff terminates blood flow to the tail and then dilates slowly allowing for the physiological readings to be obtained from the returning blood flow which is determined by the VPR sensor. The VPR-cuff then measured the arterial pulsations as blood returns to the tail and begins to swell. As the tail begins to swell the systolic blood pressure is measured, while the diastolic blood pressure is calculated when swelling stops.
The systolic and diastolic blood pressure, mean arterial pressure and the heart rate per minute was measured and about 20-25 readings were recorded and timed for approximately 30 minutes including acclimatization (FIGS. 17-28). […] Non-invasive blood pressure Measurement in Mice. […] Humana Press, which is herein incorporated by reference in its entirety.

[2] = tested on: normoglycaemic Sprague-Dawley rats; experiment: Oral Glucose Tolerance Test (OGTT), samples administered orally (gavage); format: in vivo; conditions: 900 mg/kg BW orally vs water
Description: The hypoglycaemic principles of E. camaldulensis were also administered orally. Preliminary OGTT experiments at 200 and 500 mg/kg BW were done, and as a result the dosage was increased to 700 and 900 mg/kg BW. The glucose tolerance curves (GTC) were obtained similarly to the OGTT done via intravenous administration, in that the compound was administered after the fasting blood sample was obtained, however via a oral gavage (FIGS. 14-16).
A comparison was done of the oral administration of the fatty acids with the respective oil on the blood glucose concentration by using the OGTT done in order to deduce their effect. Oleic and palmitic acids are major constituents of olive oil and coconut oil respectively. As such, comparisons were made after OGTTs were carried out to determine the effect of olive oil, coconut oil and the combined product (2.3 olive oil:1 coconut oil), on blood glucose concentration.
An analysis of glucose tolerance curves to compare olive oil, FR2DBS (oleic acid) and the combined oil (FR2DBW; 2.3 olive oil:1 coconut oil) at 900 mg/kg BW vs the control (water) all administered orally, was conducted. […] See also FIG. 29.

[3] = tested on: normoglycaemic Sprague-Dawley rats; experiment: Oral Glucose Tolerance Test (OGTT), samples administered intravenously; format: in vivo; conditions: for effect on blood glucose concentration (in words): IV OGTT vs DMSO control and/or metformin; for Hypoglycaemic effect compared with control: combinations of oleic:palmitic acids, IV OGTT vs DMSO
Description: Crude hexane, ethyl acetate, and methanol extracts (50 mg/kg BW) were administered intravenously to normoglycaemic Sprague-Dawley rats. The Oral Glucose Tolerance Test (OGTT) was then carried out using the Accu-Check Advantage II glucose kit to examine their effect on blood glucose concentration. […] A comparison was carried out using metformin (25 mg/kg BW).
Crude hexane, ethyl acetate, and methanol extracts (50 mg/kg BW) were administered intravenously to normoglycaemic Sprague-Dawley rats. The Oral Glucose Tolerance Test (OGTT) was then carried out using the Accu-Check Advantage II glucose kit to examine their effect on blood glucose concentration.
Crude hexane, ethyl acetate, and methanol extracts (50 mg/kg BW) were administered intravenously to normoglycaemic Sprague-Dawley rats.
The dosage of the extracted fr1dbe (30 mg/kg BW) and the glucose loads (1.75 g/kg BW were administered to the rats intravenously and orally, respectively. The extract was administered intravenously in order to reduce the amounts of sample that were used for the bioassays. The volume of the negative control/carrier agent (DMSO) used was approximately 0.3 mL.
In order to determine the efficacy of the isolated compounds, a known oral hypoglycaemic drug, metformin was used to do a comparison. Metformin was obtained from Sigma-Aldrich (Cat. No. d15, 095-9) and OGTTs were done via intravenous (FIGS. 7-13) and oral administration (FIGS. 14-16).

rats [4] = experiment: Post-prandial blood insulin level, Mercodia ELISA; format: in vivo; conditions: 30 mg/kg BW IV in DMSO
Description: This was carried out using the Mercodia ELISA Diagnostic kit in order to deduce the plasma insulin and glucagon levels respectively. These levels were used to determine the effect of the compound fr1dbe, on glucose homeostasis, when compared with a positive methformin and a DMSO negative control.
The samples were administered intravenously and orally at their respective dosages. After 15 minutes 75 mg/kg BW of sodium pentabarbitol was administered to the rats via an intraperitoneal injection. Blood samples were then obtained from the renal artery of the rats and collected in the (red) vacutainer for the serum sample. The samples were then centrifuged at 3,000 r.p.m. for 10 minutes and stored at −20° C. until used.
The Mercodia ELISA is a direct technique utilizing two monoclonal antibodies of the insulin molecule, one of which binds to the microtitre well, while the other binds to the insulin within the sample. When the unbound antibody is removed, a reaction with 3,3′,5,5′-tetramethylbenzidine aids in detection and spectophotometric analysis after the reaction is stopped.
The enzyme conjugate solution and wash buffer solution were prepared prior to the experiment. 10 μL of the calibrators, samples and controls were pipetted into the microtitre wells in duplicate. […] The ELISA plate was read immediately at an optical density at 450 nm and the results calculated. […]

Solubility = format: physicochemical
[5] = general description of eicosane; cited from earlier work
[6] = 30 mg/kg BW, 10 minute interval
[7] = 30 mg/kg BW, 15 minute interval
[8] = 30 mg/kg BW, 20 minute interval
[9] = 30 mg/kg BW intravenously, 90 minute interval (glycaemic peak)
[10] = 50 mg/kg BW, 10 minute interval
[11] = 50 mg/kg BW, 20 minute interval

CCCCCCCC/C=C\CCCCCCCC(=O)O [FR2DBS, oleic acid]
diastolic blood pressure (DBP) (rats [1]; [6]): 93.42±1.74 mmHg | heart rate (rats [1]; [6]): 389 ± 7.27 beats/min | diastolic blood pressure (DBP) (rats [1]; [7]): 93.21±1.33 mmHg | mean arterial pressure (MAP) (rats [1]; [8]): 100.43±1.39 mmHg | effect on mean arterial blood pressure (in words) (rats [1]; 30 mg/kg BW): significant decrease | effect on systolic blood pressure (in words) (rats [1]; 30 mg/kg BW): very low and comparable to the effect caused by captopril | effect on blood glucose level (in words) [2]: able to lower the blood glucose concentration | effect on blood glucose level (in words) ([2]; listed as oleic acid): able to reduce the post-prandial glucose level | blood glucose concentration [3, 9]: 5.23 ± 0.14 mmol/L | effect on blood glucose concentration (in words) [3]: significantly lower than the control | Hypoglycaemic effect compared with control [3]: Significant

CN(C)C(=N)N=C(N)N [metformin, reference compound]
decrease in the blood sugar level compared with the control ([3]; 25 mg/kg BW IV, 90 minute interval, vs DMSO): 1.26 mmol/L | blood glucose concentration ([3]; 25 mg/kg BW intravenously, 90 minute interval): 5.07 ± 0.089 mmol/L and 5.07 ± 0.09 mmol/L | blood glucose concentration ([3]; 25 mg/kg BW intravenously, 90 minute interval, listed as Metformin): 5.06 ± 0.089 mmol/L and 5.07 ± 0.089 mmol/L

CCCCCCCCCCCCCCCCCCCC [FR1DBE, eicosane]
blood insulin level (rats [4]; after 3½ hours of administration (210 minute interval)): 0.259 ± 0.03 µg/L | blood insulin level (rats [4]; after the 90 minute interval): 0.214 ± 0.02 µg/L | heart rate (rats [1]; [6]): 386 ± 7.91 beats/min | systolic blood pressure (SBP) (rats [1]; [6]): 118.42±1.87 mmHg | diastolic blood pressure (DBP) (rats [1]; [7]): 84.0±0.98 mmHg | systolic blood pressure (SBP) (rats [1]; [7]): 122.21±1.1 mmHg | effect on mean arterial blood pressure (in words) (rats [1]; 30 mg/kg BW): significantly reduced | effect on systolic blood pressure (in words) (rats [1]; 30 mg/kg BW): significantly reduced | solubility in water (Solubility): not soluble in water | blood glucose concentration ([3]; 30 mg/kg BW intravenously, 60 minutes interval (fasting region)): 3.7 ± 0.154 mmol/L | blood glucose concentration ([3]; 30 mg/kg BW intravenously, 90 minute interval (glycaemic peak), listed as fr1dbe): 4.71 ± 1.43 mmol/L | solubility in alcohol [5]: soluble in alcohol

C[C@H](CS)C(=O)N1CCC[C@H]1C(=O)O [captopril, reference compound]
diastolic blood pressure (DBP) (rats [1]; [6]): 91.09±1.90 mmHg and 91±1.90 mmHg | heart rate (rats [1]; [6]): 413 beats/min and 412 beats/min | mean arterial pressure (MAP) (rats [1]; [6]): 110.86±1.71 mmHg | systolic blood pressure (SBP) (rats [1]; [6]): 131.35±1.50 mmHg and 130.92±1.50 mmHg and 130.93±1.50 mmHg | diastolic blood pressure (DBP) (rats [1]; [7]): 91.19±1.37 mmHg | heart rate (rats [1]; [7]): 401.0±6.28 BPM | diastolic blood pressure (DBP) (rats [1]; [8]): 93.30±1.58 mmHg | mean arterial pressure (MAP) (rats [1]; [8]): 105.07±2.06 mmHg | heart rate (rats [1]; 30 mg/kg BW, first 10 minutes): 399.93±6.91 BPM

CCCCCCCCCCCCCCCC(=O)O [FR1DBY, palmitic acid]
diastolic blood pressure (DBP) (rats [1]; [10]): 81.93±1.74 mmHg | heart rate (rats [1]; [10]): 372.4 ± 3.07 beats/min | mean arterial pressure (MAP) (rats [1]; [10]): 95.67±1.77 mmHg | systolic blood pressure (SBP) (rats [1]; [10]): 123.42±1.27 mmHg | systolic blood pressure (SBP) (rats [1]; 50 mg/kg BW, 15 minute interval): 139.0±3.5 mmHg | diastolic blood pressure (DBP) (rats [1]; [11]): 93.79±3.14 mmHg | mean arterial pressure (MAP) (rats [1]; [11]): 104.23±3.08 mmHg | effect on blood glucose level (in words) [2]: able to significantly lower the area under the glucose tolerance curve; also recorded: able to lower the blood glucose concentration | blood glucose concentration [3, 9]: 5.4 ± 0.163 mmol/L | difference in blood glucose from the control ([3]; 50 mg/kg BW IV, 90 minute interval, vs DMSO): 1.06 mmol/L | blood glucose concentration ([3]; 50 mg/kg BW intravenously, 90 minutes interval): 5.26 ± 0.183 mmol/L | effect on blood glucose concentration (in words) [3]: same effect as Metformin | effect on blood glucose concentration (in words) ([3]; listed as commercially available palmitic acid): able to significantly lower the blood glucose concentration | more effective dosage (hypoglycaemic effect) ([3]; IV OGTT, dose comparison): 50 mg/kg BW | Hypoglycaemic effect compared with control [3]: Significant
